*1 amine or outer side, *2 acyl side, *3 side chain or, on linkers, in order; H or OH if unused. Where a SMILES comes first, the peptide text is derived from it. [ ]: non-standard residue; d: D form. The star is where a group is joined. ξ: configuration not given here. Gly(N(CH2)2(3-indolyl)) = O=C(O)CNCCc1c[nH]c2ccccc12; X5 = O=C([C@H](CC1CCCCC1)N(Cc1ccccc1)[*:1])[*:2]; X9 = CN(CCCc1ccccc1)[C@@H](CC1CCCCC1)C(=O)*; d(hhPhe) = N[C@H](CCCc1ccccc1)C(=O)O; X2 = O=C(C(CCOc1ccccc1)N[*:1])[*:2]; X4 = O=C(C=Cc1ccccc1[N+](=O)[O-])*; Cha = N[C@@H](CC1CCCCC1)C(=O)O; ξhhPhe = NC(CCCc1ccccc1)C(=O)O; X10 = O=C(Cc1c[nH]c2ccccc12)*; X1 = O=C(CC1CNc2ccccc21)*; X3 = Nc1ccccc1C=CC(=O)*; PhAc = O=C(Cc1ccccc1)*; Ahp = NCCCCCCC(=O)O; Ahx = NCCCCCC(=O)O

The target of this assay is T1, C5a receptor (Homo sapiens, UniProt P21730).
T1 construct: from tissue; host or cells: polymorphonuclear leukocyte (PMNL) membrane fragments
T1 sequence (P21730 1-350): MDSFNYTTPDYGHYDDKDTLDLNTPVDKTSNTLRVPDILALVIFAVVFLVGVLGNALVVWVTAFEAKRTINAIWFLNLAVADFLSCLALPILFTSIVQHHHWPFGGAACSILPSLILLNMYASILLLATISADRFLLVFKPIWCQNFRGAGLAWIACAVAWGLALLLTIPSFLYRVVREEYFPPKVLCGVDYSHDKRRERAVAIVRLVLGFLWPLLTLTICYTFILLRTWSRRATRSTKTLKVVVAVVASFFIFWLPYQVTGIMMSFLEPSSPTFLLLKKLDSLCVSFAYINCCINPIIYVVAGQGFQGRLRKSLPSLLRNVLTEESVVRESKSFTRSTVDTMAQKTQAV
As to the kind of experiment: Anaphylatoxin (C5a) receptor binding Ki determination, 125I-C5a on PMNL membrane fragments. Conditions: read-out: Ki (In vitro C5a Receptor Binding Potency). As for the experimental part: The membrane-bound radiolabeled C5a was separated from the free radiolabeled C5a by filtration, and the recovered gamma radioactivity was measured. […] Free and membrane-bound ligand were separated by filtration.
The Ki is a measure of affinity in units of concentration, obtained from inhibition or displacement. As for `CC(C)C[C@H](NC(=O)[C@H](CCCCN)NC(=O)[C@@H](N)CC1CCCCC1)C(=O)NC(CCCc1ccccc1)C(=O)N[C@@H](CCCNC(=N)N)C(=O)O` (single isomer, unassigned) [Example 96], the Ki is 33.2 µM.

Consider `CC(C)C[C@H](NC(=O)CNC(=O)Cc1c[nH]c2ccccc12)C(=O)N[C@H](CCCc1ccccc1)C(=O)N[C@@H](CCCNC(=N)N)C(=O)O` [Example 50, N-(Indole-3-acetyl)-Glycyl-Leucyl-{(R)-2-Amino-5-phenylpentanoyl}-Arginyl-O] (X10-GL[d(hhPhe)]R-OH), for which the Ki was found to be 0.19 µM.

For the molecule `CC(C)C[C@H](NC(=O)CNC(=O)C=Cc1ccccc1N)C(=O)N[C@H](CCCc1ccccc1)C(=O)N[C@@H](CCCNC(=N)N)C(=O)O` [Example 106, N-(2-Aminocinnamoyl)-Glycyl-Leucyl-{(R)-2-Amino-5-phenylpentanoyl}-Arginyl-OH] (X3-GL[d(hhPhe)]R-OH), the Ki came out at 0.41 µM.

In the case of `CC(C)C[C@H](NC(=O)CNC(=O)[C@H](CC1CCCCC1)NC(=O)CCCCCCN)C(=O)NC(CCOc1ccccc1)C(=O)N[C@@H](CCCNC(=N)N)C(=O)O` (stereo partly drawn) [Example 48] (H-[Ahp][Cha]GL[X2]R-OH), the inhibitory constant (Ki) amounted to 0.23 µM.

With `CC(C)C[C@H](NC(=O)CNC(=O)[C@H](CC1CCCCC1)NC(=O)CCCCCN)C(=O)NC(CCCc1ccccc1)C(=O)N[C@@H](CCCNC(=N)N)C(=O)O` (single isomer, unassigned) [Example 70], the Ki was 4.5 µM.

As for `CC(C)C[C@H](NC(=O)CCc1c[nH]c2ccccc12)C(=O)N[C@H](CCCc1ccccc1)C(=O)N[C@@H](CCCNC(=N)N)C(=O)O` [Example 38, N=(Indole-3-propionyl)-Leucyl-{(R)-2-Amino-5-phenylpentanoyl}-Arginyl-OH], the Ki came out at 8.4 µM.

As to `CC(C)C[C@H](NC(=O)CNC(=O)CC1CNc2ccccc21)C(=O)N[C@H](CCCc1ccccc1)C(=O)N[C@@H](CCCNC(=N)N)C(=O)O` (stereo partly drawn) [Example 80, N-[(Indoline-3-yl)acetyl]-Glycyl-Leucyl-{(R)-2-Amino-5-phenylpentanoyl}-Arginyl-OH] (X1-GL[d(hhPhe)]R-OH), the Ki was found to be 0.87 µM.

On to `CC(C)C[C@H](NC(=O)CNC(=O)Cc1ccccc1)C(=O)N[C@H](CCCc1ccccc1)C(=O)N[C@@H](CCCNC(=N)N)C(=O)O` [Example 93, N-Phenylacetyl-Glycyl-Leucyl-{(R)-2-Amino-5-phenylpentanoyl}-Arginyl-OH] (PhAc-GL[d(hhPhe)]R-OH), for which the Ki amounted to 0.17 µM.

On to `CC(C)C[C@H](NC(=O)[C@H](CC1CCCCC1)NC(=O)CCCCCN)C(=O)NC(CCCc1ccccc1)C(=O)N[C@@H](CCCNC(=N)N)C(=O)O` (single isomer, unassigned) [Example 86, N-(6-Aminohexanoyl)-{(25)-2-Amino-3-cyclohexylpropanoyl}-Leucyl-{(R/S)-2-Amino-5-phenylpentanoyl}-Arginyl-OH], for which the Ki stood at 44.8 µM.

Regarding `CC(C)C[C@H](NC(=O)[C@H](C)NC(=O)[C@H](CC1CCCCC1)NC(=O)[C@@H]1CCCN1C(=O)[C@H](CCCCN)NC(=O)[C@@H](N)Cc1ccccc1)C(=O)N[C@H](CCCc1ccccc1)C(=O)N[C@@H](CCCNC(=N)N)C(=O)O` [Example 2, H-Phenylalanyl-Lysyl-Prolyl-{(2S)-2-Amino-3-cyclohexylpropanoyl}-Alanyl-Leucyl-{(R)-2-Amino-5-phenylpentanoyl}-Arginyl-OH] (H-FKP[Cha]AL[d(hhPhe)]R-OH), the Ki was 0.0048 µM.

As to `N=C(N)NCCC[C@H](NC(=O)C(CCCc1ccccc1)NC(=O)[C@@H](Cc1ccccc1)NC(=O)CNC(=O)[C@H](CC1CCCCC1)NC(=O)CCCCCN)C(=O)O` (mixture of isomers) [Example 58, N-(6-Aminohexanoyl)-{(2S)-2-Amino-3-cyclohexylpropanoyl}-Glycyl-DPhenylalanyl-{(R/S)-2-Amino-5-phenylpentanoyl}-Arginyl-OH], the Ki came out at 6.5 µM.

As to `CC(C)C[C@H](NC(=O)[C@@H]1CCCN1C(=O)[C@H](CC1CCCCC1)NC(=O)CCCCCN)C(=O)NC(CCCc1ccccc1)C(=O)N[C@@H](CCCNC(=N)N)C(=O)O` (mixture of isomers) [Example 11, N-(6-Aminohexanoyl)-{(2S)-2Amino-3-cyclohexylpropanoyl}-Prolyl-Leucyl-{(R/S)-2-Amino-5-phenylpentanoyl}-Arginyl-OH], the Ki is 3.6 µM.

In the case of `CC(C)C[C@H](NC(=O)CNC(=O)C=C1CNc2ccccc21)C(=O)N[C@H](CCCc1ccccc1)C(=O)N[C@@H](CCCNC(=N)N)C(=O)O` (single isomer, unassigned) [Example 65], the inhibition constant Ki was determined as 0.3 µM.

Take `CC(C)C[C@H](NC(=O)CNCCc1c[nH]c2ccccc12)C(=O)N[C@H](CCCc1ccccc1)C(=O)N[C@@H](CCCNC(=N)N)C(=O)O` [Example 79, N-[(Indol-3-yl)ethyl]-Glycyl-Leucyl-{(R)-2-Amino-5-phenylpentanoyl}-Arginyl-OH] (H-[Gly(N(CH2)2(3-indolyl))]L[d(hhPhe)]R-OH): the inhibition constant Ki stood at 0.39 µM.

On to `CC(C)C[C@H](NC(=O)[C@H](C)NC(=O)[C@H](CC1CCCCC1)NC(=O)[C@@H]1CCCN1C(=O)[C@H](CCCCN)NC(=O)CN)C(=O)NC(CCCc1ccccc1)C(=O)N[C@@H](CCCNC(=N)N)C(=O)O` (single isomer, unassigned) [Example 52], for which the Ki stood at 10.3 µM.

As to `CC(C)C[C@H](NC(=O)CNC(=O)[C@H](CC1CCCCC1)NC(=O)CN)C(=O)NC(CCCc1ccccc1)C(=O)N[C@@H](CCCNC(=N)N)C(=O)O` (single isomer, unassigned) [Example 73], the Ki stood at 1.99 µM.

For `CC(C)C[C@H](NC(=O)[C@H](CC1CCCCC1)NC(=O)CCCCCN)C(=O)NC(CCCc1ccccc1)C(=O)N[C@@H](CCCNC(=N)N)C(=O)O` (single isomer, unassigned) [Example 87], the Ki worked out at 5.8 µM.

Consider `CC(C)C[C@H](NC(=O)[C@H](C)NC(=O)[C@H](CC1CCCCC1)NC(=O)[C@@H]1CCCN1C(=O)[C@@H](N)CCCCN)C(=O)NC(CCCc1ccccc1)C(=O)N[C@@H](CCCNC(=N)N)C(=O)O` (single isomer, unassigned) [Example 69], for which the Ki is 0.14 µM.

For the molecule `C[C@H](NC(=O)CNC(=O)[C@H](CC1CCCCC1)NC(=O)CCCCCN)C(=O)NC(CCCc1ccccc1)C(=O)N[C@@H](CCCNC(=N)N)C(=O)O` (stereo partly drawn) [Example 74, N-(6-Aminohexanoyl)-{(2S)-2-Amino-3-cyclohexylpropanoyl}-Glycyl-Alanyl-{(+)-2-Amino-5-phenylpentanoyl}-Arginyl-OH] (H-[Ahx][Cha]GA[ξhhPhe]R-OH), the inhibitory constant (Ki) amounted to 91.9 µM.

In the case of `CC(C)C[C@H](NC(=O)CNC(=O)[C@H](CC1CCCCC1)NCc1ccccc1)C(=O)N[C@H](CCCc1ccccc1)C(=O)N[C@@H](CCCNC(=N)N)C(=O)O` [Example 63, H-{(2S)-2-Amino-3-cyclohexylpropanoyl}(N-Benzyl)-Glycyl-Leucyl-{(R)-2-Amino-5-phenylpentanoyl}-Arginyl-OH] (H-[X5]GL[d(hhPhe)]R-OH), the Ki was determined as 0.4 µM.

Turning to `CC(C)C[C@H](NC(=O)CNC(=O)C=Cc1ccccc1[N+](=O)[O-])C(=O)N[C@H](CCCc1ccccc1)C(=O)N[C@@H](CCCNC(=N)N)C(=O)O` [Example 107, N-(2-Nitrocinnamoyl)-Glycyl-Leucyl-{(R)-2-Amino-5-phenylpentanoyl}-Arginyl-OH] (X4-GL[d(hhPhe)]R-OH), the Ki was 0.087 µM.

On to `CC(C)C[C@H](NC(=O)CNC(=O)[C@H](CC1CCCCC1)N(C)CCCc1ccccc1)C(=O)N[C@H](CCCc1ccccc1)C(=O)N[C@@H](CCCNC(=N)N)C(=O)O` [Example 103, N-(3-Phenylpropyl)-N-methyl-{(2S)-2-Amino-3-cyclohexylpropanoyl}-Glycyl-Leucyl-{(R)-2-Amino-5-phenylpentanoyl}-Arginyl-OH] (X9-GL[d(hhPhe)]R-OH), for which the Ki was 1.32 µM.

`CC(C)C[C@H](NC(=O)CNC(=O)C(N)CCCc1ccccc1)C(=O)N[C@H](CCCc1ccccc1)C(=O)N[C@@H](CCCNC(=N)N)C(=O)O` (single isomer, unassigned) [Example 104]: the inhibitory constant (Ki) worked out at 2.4 µM.

For the molecule `CC(C)C[C@H](NC(=O)[C@H](C)NC(=O)[C@H](CC1CCCCC1)NC(=O)CCCCCN)C(=O)NC(CCCc1ccccc1)C(=O)N[C@@H](CCCNC(=N)N)C(=O)O` (single isomer, unassigned) [Example 135], the Ki came out at 1.3 µM.

For the molecule `CN[C@@H](Cc1ccccc1)C(=O)N[C@@H](CCCCN)C(=O)N1CCC[C@H]1C(=O)N[C@@H](CC1CCCCC1)C(=O)N[C@@H](C)C(=O)N[C@@H](CC(C)C)C(=O)NC(CCCc1ccccc1)C(=O)N[C@@H](CCCNC(=N)N)C(=O)O` (single isomer, unassigned) [Example 129], the inhibition constant Ki is 0.017 µM.

`CC(C)C[C@H](NC(=O)[C@@H]1CCCN1C(=O)[C@H](CC1CCCCC1)NC(=O)CNC(=O)CCCCCN)C(=O)NC(CCCc1ccccc1)C(=O)N[C@@H](CCCNC(=N)N)C(=O)O` (single isomer, unassigned) [Example 110]: the Ki was 9.3 µM.

Turning to `CC(C)C[C@H](NC(=O)[C@H](C)NC(=O)[C@H](CC1CCCCC1)NC(=O)[C@@H]1CCCN1C(=O)[C@H](CCCCN)NC(=O)CN)C(=O)NC(CCCc1ccccc1)C(=O)N[C@@H](CCCNC(=N)N)C(=O)O` (single isomer, unassigned) [Example 53, H-Glycyl-Lysyl-Prolyl-{(2S)-2-Amino-3-cyclohexylpropanoyl}-Alanyl-Leucyl-{(R/S)-2-Amino-5-phenylpentanoyl}-Arginyl-OH], the inhibition constant (Ki) was found to be 0.1 µM.

The values above are taken from patent publication US5663148A, “Anaphylatoxin receptor ligands containing lipophilic residues” (Abbott Laboratories, priority 1994, dated 1997).
